{"source": "patent US8575100B2", "about": "“Tc and Re labeled radioactive glycosylated octreotide derivatives” (Mallinckrodt LLC, priority 2001, dated 2013)", "key": {"[1]": {"experiment": "Determination of lipophilicity (octanol/PBS)", "type": "physicochemical", "conditions": "octanol/PBS pH 7.4; radiolabeled peptide; n=6", "method": "To a solution of app. 300000 cpm of radiolabeled peptide in […] of PBS (pH 7.4), […] of octanol were added (n=6). Vials were vortexed for 3 min and then centrifuged at 15000 rpm for 6 min. Aliquots of […] of PBS and octanol were measured in a γ-Counter."}, "[2]": {"system": "AR42J-cells (SSTR2)", "experiment": "Externalization and recycling of radioligands in AR42J cells", "type": "cell-based, rat", "conditions": "for externalisation from the cell (in words): upon incubation up to 120 min; for extracellularly located radioactivity compared to the experiment without recycling: externalization experiment that allowed recycling", "method": "(§1) The cells were incubated with the radioligand for up to 120 min (n=3). At each time point the activity in the supernatant, the surface-bound and the internalized activity were determined and normalized to the values of TOC. Externalization and recycling was studied after an incubation time of 120 min over 2 h. Specificity of ligand binding was studied in a competition experiment with […] Sandostatin.\n(§2) Internalisation and externalisation experiments were performed using the sst2 expressing rat pancreatic tumor cell line AR42J. Free, surface bound and internalised radioactivity were determined after 10, 30, 60, 90 and 120 min. of incubation with the radioligands at 37° C. In the externalisation experiments allowing ligand recycling, the fraction of radioactivity released into the supernatant during 10, 30, 60, 90 and 120 min as well as the radioactivity remaining in the cells were determined. We also measured the activity released during 5 subsequent incubations (10, 20 and 3×30 min) with intermediate changes of the medium (limited recycling).\nAs described for the internalization studies, the six-well plates were incubated at 37° C. with fresh culture medium (RPMI 1640, 1% BSA, 2 mM L-Glutamine) for 1H prior to the experiment. Then app. […] After incubating for 120 min. at 37° C., the supernatant was collected and the cells were washed once with 1 ml of cold medium. The supernatant was pooled with the supernatant of the previous step. To collect externalized radioactivity the cells were then incubated at 37° C. with 1 ml of culture medium. After 10, 30, 60, 90 and 120 minutes respectively, the supernatant was collected, the cells were washed once with 1 ml of culture medium and the supernatant was again pooled with the supernatant of the previous step. Then the cells were extracted with 1 ml of 1 N NaOH and the wells were rinsed once with PBS. This pooled fraction represents radioligand still located in the cell. The activity in the NaOH-fraction as well as in the supernatant- and in the externalisation-fractions was counted in a γ-Counter.\nAs described for the previous experiment, a six-well plate was incubated for 120 min. at 37° C. with radioligand. The supernatant was collected and the cells were washed once with 1 ml of cold medium. The supernatant was pooled with the supernatant of the previous step. To collect externalized radioactivity the cells were then incubated at 37° C. with 1 ml of culture medium. After 10 min. the supernatant was collected and the cells were again incubated with 1 ml of culture medium for another 20 min. at 37° C. The supernatant was collected and the cells were three more times incubated with 1 ml of culture medium for 30 min. at 37° C. Then the cells were extracted with 1 ml of 1 N NaOH and the wells were rinsed once with PBS. This pooled fraction represents radioligand still located in the cell. The activity in the NaOH-fraction as well as in the externalisation-fractions at all time points was counted in a […]."}, "[3]": {"system": "AR42J-cells (SSTR2)", "experiment": "Internalization of radioligands in AR42J cells", "conditions": "for internalised ligand / internalisation rate (% internalised ligand/% surface-bound ligand): 60 min incubation; for internalised ligand: normalized to the reference [125I]TOC; for internalisation rate (% internalised ligand/% surface-bound ligand): ratio normalized to the reference [125I]TOC", "method": "as §1, §2\nCoupling of glucose (Gluc) and maltotriose (Mtr) to N^α-Lys of N^ε-(Boc-His(Boc))Lys^0-Tyr^3-Lys^5(Dde)-octreotide (protected K(H)TOC) and final deprotection yielded Gluc- and Mtr-K(H)TOC. ^99mTc-labeling was carried out using [^99mTc(H2O)3(CO)3]^+. […] Biodistribution was evaluated in nude mice bearing AR42J tumors at 0.5 and 2 h p.i (n=4).\nN^ε(Boc-His(Boc))Lys^0-Tyr^3-Lys^5 (Dde)-octreotide (protected K(H)TOC) was synthesized using standard Fmoc-chemistry. […] Tc-99m-labeling was carried out using the organometallic aquaion [^99mTc (H2O)3 (CO)3]^+(1). Internalization and externalization studies (<120 min) were performed for both compounds using the SSTR2 expressing cell line AR42J. […] Biodistribution of intravenously administered [^99mTc]Gluc-K(H)TOC and [^99mTc]Mtr-K(H)TOC was evaluated in nude mice bearing AR42J rat pancreatic tumors at 30 and 120 min p.i(n=4).\nSix-well plates with a cell population of 8×10^5-5×10^6 AR42J-cells per well were incubated at 37° C. with fresh culture medium (RPMI 1640, 1% BSA, 2 mM L-glutamine) for 1 h prior to the experiment. Then app. […] After incubating for 10, 30, 60, 90 or 120 min. at 37° C. the supernatant was collected and the cells were washed once with 1 ml of cold medium. The supernatant was pooled with the supernatant of the previous step. To remove receptor bound (acid releasable) radioactivity the cells were incubated at 37° C. with 1 ml of 0.02 M NaOAc (acid wash). After 10 min. the supernatant was collected, the cells were washed once with 1 ml of 0.02 M NaOAc and the supernatant was again pooled with the supernatant of the previous step. Then the cells were extracted with 1 ml of 1 N NaOH and the wells were rinsed once with PBS. This pooled fraction represents internalized radioligand. The activity in the NaOH-fraction as well as in the supernatant- and in the acid wash-fractions was counted in a γ-Counter."}}, "data": [{"substance": "(1-deoxy-D-fructosyl)-Lys^0Nε-His)-Tyr^3-octreotide [S1-Lys^0(His)TOC]", "values": [{"measurement": "log Pow", "setting": "[1]", "value": "log Pow = −0.673 ± 0.064"}]}, {"substance": "Na-(1-deoxy-D-fructosyl)-Lys^0(Nε-His [^99mTc (H2O)(CO)3]+)-Tyr^3-octreotide [[^99mTc]Gluc-K^0(H)TOC]", "values": [{"measurement": "externalisation from the cell (in words)", "setting": "[2]", "value": "remains trapped within the cell up to 120 min"}, {"measurement": "externalisation from the cell (in words)", "setting": "[2]; listed as [^99mTc]Gluc-K(H)TOC", "value": "almost stable up to 2h"}, {"measurement": "retention in the cell under recycling conditions", "setting": "[2]; within 120 min, recycling allowed", "value": "nearly quantitative retention"}, {"measurement": "internalised ligand", "setting": "[3]", "value": "234 ± 24"}, {"measurement": "internalisation rate (% internalised ligand/% surface-bound ligand)", "setting": "[3]", "value": "171 ± 29"}, {"measurement": "increase of internalisation by a factor compared to the reference [125I]TOC", "setting": "[3]; Example 2, time not given", "value": "2.3±0.8"}, {"measurement": "intracellular activity levels, times higher than [125I]TOC", "setting": "[3]; at 2 h (120 min)", "value": "2.3±0.2", "unit": "times"}]}, {"substance": "[^125I]Tyr^3-octreotate [[^125I]TOCA]", "values": [{"measurement": "extracellularly located radioactivity compared to the experiment without recycling", "setting": "[2]; printed as a fraction", "value": "about ⅔"}, {"measurement": "surface availability (% surface-bound ligand/% free radioligand)", "setting": "[3]", "value": "182 ± 6"}, {"measurement": "internalised ligand", "setting": "[3]", "value": "204 ± 7"}, {"measurement": "internalisation rate (% internalised ligand/% surface-bound ligand)", "setting": "[3]", "value": "140 ± 8"}, {"measurement": "amount of internalized ligand [% internalized TOC]", "setting": "[3]; after 2 h of incubation, normalized to TOC", "value": 154, "unit": "%"}, {"measurement": "internalization rate (internalized/surface bound act.) increase", "setting": "[3]; compared to TOC", "value": 1.4, "unit": "fold"}, {"measurement": "surface concentration (availability on the cell surface) increased by a factor compared to TOC", "setting": "[3]; compared to TOC", "value": 2.1}]}, {"substance": "[^125I]Tyr^3-octreotide [[^125I]TOC]", "values": [{"measurement": "extracellularly located radioactivity compared to the experiment without recycling", "setting": "[2]", "value": "about 80%"}, {"measurement": "externalisation from the cell (in words)", "setting": "[2]", "value": "rapidly externalised"}, {"measurement": "decrease of intracellular activity", "setting": "[2]; within 2 h (120 min)", "value": "about 50%"}, {"measurement": "internalised ligand", "setting": "[3]", "value": 100}, {"measurement": "internalisation rate (% internalised ligand/% surface-bound ligand)", "setting": "[3]", "value": 100}]}]}
